The source of these data is patent US10934309B2, “Tricyclic quinone derivative” (Boston Biomedical, Inc., priority 2014, dated 2021).

Some results are limits rather than exact numbers.

Assay type in all cases: cell-based, human
In experiment [1] the test system is cancer cells. Nature of the experiment: Inhibition test of cancer cell sphere-forming ability, overall statement on Table 2. Conditions: summary of Table 2. On the procedure: HCT-116 cells (derived from human colon adenocarcinoma), HT-29 cells (derived from human colon cancer), FaDu cells (derived from human hypopharynx cancer) were obtained from American Type Culture Collection (ATCC). HCT-116 cells and HT-29 cells were cultured using McCoy's 5a medium containing 10% fetal bovine serum (FBS) and 1% penicillin/streptomycin, and FaDu cells were cultured using MEM medium containing 10% FBS, 1% non-essential amino acid, 1% sodium pyruvate, and 1% penicillin/streptomycin, respectively, at 37° C. in the presence of 5% CO2. HCT-116 cells, HT-29 cells, and FaDu cells were seeded onto 384 Well Black Clear Bottom Ultra-Low Attachment Microplate (Corning Cat. No. 3827) using DMEM/F12 medium containing 2% B27 supplement (GIBCO), 20 ng/mL epidermal growth factor (EGF) (peprotech), 10 ng/mL basic fibroblast growth factor (bFGF) (peprotech), 5 μg/mL insulin (Sigma), and 1% penicillin/streptomycin to be 350-800 cells/well. A test substance was added so that the final concentration of DMSO is 0.1%, and then cultured for 4 days. The number of living cells was then counted using Cell Titer-Glo (registered trademark) Luminescent Cell Viability Assay (Promega) to calculate the concentration for 50% inhibition of cell proliferation of respective test substances (Sphere IC50 value; μM).

For experiment [2], the system named is HT-29 cells. Nature of the experiment: Inhibition assay of cancer cell sphere-forming ability (Test Example 2), HT-29. Conditions: Homo sapiens, HT-29, 96 h, HT-29 cells, Ultra-Low Attachment plate, serum-free DMEM/F12 with B27, EGF, bFGF, insulin, 4 days, Cell Titer-Glo; read-out: IC50 (μM) HT; concentration for 50% inhibition of cell proliferation (Sphere IC50 value). Summed up: (§1)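 Human tumour lines (colon HCT-116, HT-29; hypopharynx FaDu) seeded on ultra-low-attachment plates to form spheres. Compound added at 0.1% final DMSO, cultured 4 days.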

Experiment [3] relates to FaDu cells. Nature of the experiment: Inhibition assay of cancer cell sphere-forming ability (Test Example 2), FaDu. Conditions: Homo sapiens, FaDu, 96 h, FaDu cells, Ultra-Low Attachment plate, serum-free DMEM/F12 with B27, EGF, bFGF, insulin, 4 days, Cell Titer-Glo; read-out: IC50 (μM) FaDu; concentration for 50% inhibition of cell proliferation (Sphere IC50 value). Summed up:
as §1

Experiment [4] has as its system HCT-116 cells. Put plainly: Proliferation inhibition assay of cancer cells (Test Example 1), HCT-116. Conditions: Homo sapiens, HCT-116, 96 h, HCT-116 cells, cultured for 4 days, Cell Titer-Glo; read-out: IC50 (μM) HCT; concentration for 50% inhibition of cell proliferation (Bulk IC50 value). In short, it runs like this: (§2)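 Test substance added at a final DMSO level of 0.1% and cells cultured 4 days; plating density 300-600 cells/well in 384-well plates, with human colon lines HCT-116 and HT-29 and hypopharyngeal line FaDu.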

For experiment [5], the system named is HCT-116 cells. Nature of the experiment: Inhibition assay of cancer cell sphere-forming ability (Test Example 2), HCT-116. Conditions: Homo sapiens, HCT-116, 96 h, HCT-116 cells, Ultra-Low Attachment plate, serum-free DMEM/F12 with B27, EGF, bFGF, insulin, 4 days, Cell Titer-Glo; read-out: IC50 (μM) HCT; concentration for 50% inhibition of cell proliferation (Sphere IC50 value). Summed up: as §1

Experiment [6] concerns FaDu cells. Nature of the experiment: Proliferation inhibition assay of cancer cells (Test Example 1), FaDu. Conditions: Homo sapiens, FaDu, 96 h, FaDu cells, cultured for 4 days, Cell Titer-Glo; read-out: IC50 (μM) FaDu; concentration for 50% inhibition of cell proliferation (Bulk IC50 value). Summed up: as §2
Experiment [7] relates to cancer cells. Nature of the experiment: Proliferation inhibition test of cancer cells, overall statement on Table 1. Conditions: summary of Table 1. On the procedure: HCT-116 cells (derived from human colon adenocarcinoma), HT-29 cells (derived from human colon cancer), and FaDu cells (derived from human hypopharynx cancer) were obtained from American Type Culture Collection (ATCC). HCT-116 cells and HT-29 cells were cultured using McCoy's 5a medium containing 10% fetal bovine serum (FBS) and 1% penicillin/streptomycin, and FaDu cells were cultured using MEM medium containing 10% FBS, 1% non-essential amino acid, 1% sodium pyruvate, and 1% penicillin/streptomycin, respectively, at 37° C. in the presence of 5% CO2. After cells were seeded at 300-600 cells/well onto black μClear-plate 384 well (Greiner bio-one Cat. No. 781091), a test substance was added such that the final concentration of DMSO is 0.1%, and cultured for 4 days. The number of living cells was then counted using Cell Titer-Glo (Registered trademark) Luminescent Cell Viability Assay (Promega) to calculate a concentration for 50% inhibition of cell proliferation of respective test substances (Bulk IC50 value; μM).

Experiment [8] concerns HT-29 cells. Put plainly: Proliferation inhibition assay of cancer cells (Test Example 1), HT-29. Conditions: Homo sapiens, HT-29, 96 h, HT-29 cells, cultured for 4 days, Cell Titer-Glo; read-out: IC50 (μM) HT; concentration for 50% inhibition of cell proliferation (Bulk IC50 value). Summed up:
as §2

For the compound `O=C1c2ccncc2C(=O)c2c1oc(C(F)F)c2C(=O)N1CCOCC1` [Example 62, 2-(difluoromethyl)-3-(morpholine-4-carbonyl)furo[2,3-g]isoquinoline-4,9-dione], the “effect to inhibit cancer cell sphere-forming ability (in words)” value in experiment [1] was “particularly strong effect”. The IC50 was 0.04 µM in experiment [2]; below 0.01 µM in experiment [3]; 0.06 µM in experiment [4]; 0.05 µM in experiment [5]; 0.04 µM in experiment [6]; 0.57 µM in experiment [8]. Further, in experiment [7], the “effect on the inhibition of the proliferation of cancer cells (in words)” value (“effect on the inhibition” below) was “particularly strong effect”.
Turning to `CC(O)c1cc2c(o1)C(=O)c1cnccc1C2=O` (centres unmarked) [Example 49, 2-(1-hydroxyethyl)furo[3,2-g]isoquinoline-4,9-dione], the “effect to inhibit cancer cell sphere-forming ability (in words)” value in experiment [1] is “particularly strong effect”. For the same compound, the IC50 in experiment [2] was 0.06 µM; in experiment [3] it was below 0.01 µM; in experiment [4] it was 0.04 µM; in experiment [5], 0.04 µM; in experiment [6], below 0.01 µM; in experiment [8], 0.08 µM. In experiment [7], the “effect on the inhibition” value is given as “particularly strong effect”.
Regarding `N#Cc1cc2c(s1)C(=O)c1ccncc1C2=O` [Example 29, 4,9-dioxo-4,9-dihydrothieno[2,3-g]isoquinoline-2-carbonitrile], the “effect to inhibit cancer cell sphere-forming ability (in words)” value in experiment [1] is “particularly strong effect”. For the same compound, the IC50 in experiment [2] was 0.05 µM; in experiment [3], below 0.01 µM; in experiment [4], 0.04 µM; in experiment [5] it was 0.05 µM; in experiment [6], below 0.01 µM; in experiment [8] it was 0.32 µM. Further, the “effect on the inhibition” value in experiment [7] is listed as “particularly strong effect”.
With `CC(=O)c1cc2c(s1)C(=O)c1cnccc1C2=O` [Example 33, 2-acetylthieno[3,2-g]isoquinoline-4,9-dione], the “effect to inhibit cancer cell sphere-forming ability (in words)” value in experiment [1] is recorded as “particularly strong effect”. The IC50 in experiment [2] was 0.07 µM; in experiment [3], below 0.01 µM; in experiment [4], below 0.01 µM; in experiment [5] it was 0.02 µM; in experiment [6], below 0.01 µM; in experiment [8] it was 0.09 µM. Moreover, the “effect on the inhibition” value in experiment [7] is “particularly strong effect”.
`CCc1noc(-c2cc3c(s2)C(=O)c2ccncc2C3=O)n1` [Example 31, 2-(3-ethyl-1,2,4-oxadiazol-5-yl)thieno[2,3-g]isoquinoline-4,9-dione]: the “effect to inhibit cancer cell sphere-forming ability (in words)” value in experiment [1] is given as “particularly strong effect”. The 50% inhibitory concentration (IC50) in experiment [2] is below 0.01 µM; in experiment [3] it was below 0.01 µM; in experiment [4], 0.04 µM; in experiment [5], 0.03 µM; in experiment [6], below 0.01 µM; in experiment [8] it was 0.31 µM. Also, in experiment [7], the “effect on the inhibition” value is “particularly strong effect”.
For the compound `CC(=O)c1cc2c(s1)C(=O)c1ccncc1C2=O` [Example 12, 2-acetylthieno[2,3-g]isoquinoline-4,9-dione], in experiment [1], the “effect to inhibit cancer cell sphere-forming ability (in words)” value was “particularly strong effect”. In addition, the half-maximal inhibitory concentration (IC50) is 0.03 µM in experiment [2]; below 0.01 µM in experiment [3]; 0.05 µM in experiment [4]; 0.04 µM in experiment [5]; below 0.01 µM in experiment [6]; 0.18 µM in experiment [8]. In addition, in experiment [7], the “effect on the inhibition” value is on record as “particularly strong effect”.
Regarding `O=C(NCC(F)F)c1cc2c(o1)C(=O)c1ccncc1C2=O` [Example 46, N-(2,2-difluoroethyl)-4,9-dioxo-4,9-dihydrofuro[2,3-g]isoquinoline-2-carboxamide], the “effect to inhibit cancer cell sphere-forming ability (in words)” value in experiment [1] is “particularly strong effect”. The concentration for half-maximal inhibition (IC50) in experiment [2] is 0.05 µM; in experiment [3] it was below 0.01 µM; in experiment [4], below 0.01 µM; in experiment [5], 0.04 µM; in experiment [6] it was below 0.01 µM; in experiment [8], 0.05 µM. Moreover, in experiment [7], the “effect on the inhibition” value was “particularly strong effect”.
On to `CC(=O)c1cc2c(s1)C(=O)c1cccnc1C2=O` [Example 1, 2-acetylthieno[2,3-g]quinoline-4,9-dione], for which the IC50 in experiment [2] was 0.07 µM; in experiment [3] it was 0.02 µM; in experiment [4], 0.01 µM; in experiment [5], 0.02 µM; in experiment [6], 0.01 µM; in experiment [8], 0.57 µM. Also, the “effect on the inhibition” value in experiment [7] is recorded as “particularly strong effect”.
For the compound `O=C1c2cnccc2C(=O)c2sc(C(O)C3CC3)cc21` (centres unmarked) [Example 16, 2-[cyclopropyl(hydroxy)methyl]thieno[2,3-g]isoquinoline-4,9-dione], in experiment [1], the “effect to inhibit cancer cell sphere-forming ability (in words)” value is given as “particularly strong effect”. Also, the IC50 in experiment [2] is 0.15 µM; in experiment [3], below 0.01 µM; in experiment [4], 0.06 µM; in experiment [5], 0.22 µM; in experiment [6] it was below 0.01 µM; in experiment [8], 0.58 µM. Moreover, the “effect on the inhibition” value in experiment [7] is given as “particularly strong effect”.
With `CC(F)c1cc2c(s1)C(=O)c1ccncc1C2=O` (centres unmarked) [Example 30, 2-(1-fluoroethyl)thieno[2,3-g]isoquinoline-4,9-dione], the “effect to inhibit cancer cell sphere-forming ability (in words)” value in experiment [1] is on record as “particularly strong effect”. For the same compound, the IC50 in experiment [2] was below 0.01 µM; in experiment [3] it was below 0.01 µM; in experiment [4], below 0.01 µM; in experiment [5], below 0.01 µM; in experiment [6] it was below 0.01 µM; in experiment [8], 0.05 µM. The “effect on the inhibition” value in experiment [7] is recorded as “particularly strong effect”.
On to `O=C1c2cnccc2C(=O)c2sc(C(=O)N3CCOCC3)cc21` [Example 20, 2-(morpholin-4-ylcarbonyl)thieno[2,3-g]isoquinoline-4,9-dione], for which the “effect to inhibit cancer cell sphere-forming ability (in words)” value in experiment [1] is given as “particularly strong effect”. Further, the IC50 in experiment [2] was 0.06 µM; in experiment [3], below 0.01 µM; in experiment [4] it was 0.05 µM; in experiment [5], 0.06 µM; in experiment [6] it was below 0.01 µM; in experiment [8], 0.09 µM. Moreover, the “effect on the inhibition” value in experiment [7] is on record as “particularly strong effect”.
As to `O=C1c2cnccc2C(=O)c2oc(C(F)F)cc21` [Example 63, 2-(difluoromethyl)furo[2,3-g]isoquinoline-4,9-dione], the “effect to inhibit cancer cell sphere-forming ability (in words)” value in experiment [1] is “particularly strong effect”. Moreover, the IC50 in experiment [2] stood at 0.24 µM; in experiment [3], 0.04 µM; in experiment [4] it was 0.05 µM; in experiment [5], 0.06 µM; in experiment [6] it was 0.05 µM; in experiment [8], 0.54 µM. Also, the “effect on the inhibition” value in experiment [7] is reported as “particularly strong effect”.
